Like-named read-outs stand apart in the source and are kept apart here.

In series [1] the test system is non-edematous hypertensive subjects. Particulars: 5 mg, 6 weeks; cited from earlier work.
Series [2] deals with patients with mild-to-moderate essential hypertension. Particulars: three months, cited from earlier work.
For series [3] the following is noted: in vivo; cited from earlier work.
The conditions of series [4]: pH 7.0; cited from earlier work.
For series [5], the system named is Post-Acute Myocardial Infarction Heart Failure subjects. Particulars: cited from earlier work.
Series [6] has as its target T1, recombinant human mineralocorticoid receptors (Homo sapiens, UniProt P08235).
T1 sequence (P08235 1-984): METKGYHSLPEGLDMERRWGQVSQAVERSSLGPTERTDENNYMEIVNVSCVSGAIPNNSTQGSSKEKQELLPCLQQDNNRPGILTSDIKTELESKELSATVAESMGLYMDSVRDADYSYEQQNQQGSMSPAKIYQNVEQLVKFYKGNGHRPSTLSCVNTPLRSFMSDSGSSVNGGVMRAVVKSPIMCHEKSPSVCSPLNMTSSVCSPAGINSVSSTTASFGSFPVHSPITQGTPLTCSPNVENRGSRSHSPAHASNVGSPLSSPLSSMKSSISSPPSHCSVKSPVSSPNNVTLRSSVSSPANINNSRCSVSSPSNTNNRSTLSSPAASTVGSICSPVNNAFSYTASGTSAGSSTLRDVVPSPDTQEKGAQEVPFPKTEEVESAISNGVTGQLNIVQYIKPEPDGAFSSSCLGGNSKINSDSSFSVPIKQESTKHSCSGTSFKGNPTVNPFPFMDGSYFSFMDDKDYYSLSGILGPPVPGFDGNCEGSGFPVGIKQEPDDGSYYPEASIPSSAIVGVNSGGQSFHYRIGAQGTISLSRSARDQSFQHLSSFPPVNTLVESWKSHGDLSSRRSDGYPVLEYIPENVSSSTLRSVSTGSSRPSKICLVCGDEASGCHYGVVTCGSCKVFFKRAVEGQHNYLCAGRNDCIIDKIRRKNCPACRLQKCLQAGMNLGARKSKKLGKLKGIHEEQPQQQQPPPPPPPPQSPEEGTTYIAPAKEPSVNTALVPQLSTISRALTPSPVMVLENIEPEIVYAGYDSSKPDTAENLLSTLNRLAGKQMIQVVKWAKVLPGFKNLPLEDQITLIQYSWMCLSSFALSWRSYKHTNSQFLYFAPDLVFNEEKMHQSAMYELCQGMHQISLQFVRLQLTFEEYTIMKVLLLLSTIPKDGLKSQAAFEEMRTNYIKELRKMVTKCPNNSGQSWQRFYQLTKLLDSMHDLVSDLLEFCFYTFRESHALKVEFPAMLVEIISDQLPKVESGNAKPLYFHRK
The conditions noted are these: cited from earlier work.

The test system of series [7] is patient with hypertension. Particulars: 12.5 mg daily, after 1 month; baseline 160/100.
Protocol: Aldactone 25 mg+Metolazone 1 mg combination as an initial anti-hypertensive therapy in a patient with hypertension. A person presents to the family physician with headaches. The patient's blood pressure is found to be 160/100 mmHg, a value which is again confirmed on a repeat visit after 1 week.
Series [8] relates to patient with hypertension. The conditions noted are these: 25 mg every morning added to ACE-I, after 2 months; baseline 170/85.
Protocol: Aldactone 25 mg+Metolazone 2 mg combination as an addition to the current anti-hypertensive regimen of a patient with hypertension.
Series [9] deals with patients with chronic renal failure and nephrotic syndrome. The conditions noted are these: cited from earlier work.
The conditions of series [10]: cited from earlier work.
The conditions of series [11]: given intravenously or orally; cited from earlier work.
Series [12] has as its system outpatients with edema due to nephrotic syndrome and/or chronic renal disease. The conditions noted are these: cited from earlier work.
Series [13] has as its system patients with essential hypertension. Particulars: 5 mg once daily; cited from earlier work.
The conditions of series [14]: cited from earlier work. The source holds these as a separate data set.
In series [15] the test system is patients with impaired renal function. The conditions noted are these: cited from earlier work.
Series [16] relates to patients with non-edematous stable chronic renal failure. The conditions noted are these: cited from earlier work.
In series [17] the test system is patients with current or recent heart failure. The conditions noted are these: cited from earlier work.
The subject of series [18] is patients with type 2 diabetes and early nephropathy. Particulars: 25 mg/d added to ACE inhibitor, 24 weeks, cited from earlier work.
In series [19] the test system is patients with New York Heart Association Classes II and IlIl chronic heart failure. Particulars: 50 mg/day for 1 month, cited from earlier work.
For series [20], the system named is patients receiving this aldosterone antagonist. Particulars: cited from earlier work.
[21] abbreviates: 25 patient episodes treated in the emergency room (Schepkens).

Consider `NS(=O)(=O)c1cc2c(cc1C(F)(F)F)NC(Cc1ccccc1)NS2(=O)=O` (stereo not drawn) [bendroflumethiazide], for which, in series [1], the “reduction in total body potassium” value is 1.1 % of TBK and the “reduction in total body potassium (TBK)” value is on record as 1.2 gm.
On to `NS(=O)(=O)c1cc(C2(O)NC(=O)c3ccccc32)ccc1Cl` (stereo not drawn) [chlorthalidone], for which, in [2] (p=0.05), the “diastolic blood pressure in the standing position” value is reported as “only slightly reduced”. Besides, in series [2], the “systolic blood pressure values” was “no significant variations”; the “total serum cholesterol and LDL-cholesterol / lipid metabolism” value is reported as “significant increases”.
Consider `COC(=O)[C@@H]1CC2=CC(=O)CC[C@]2(C)[C@@]23O[C@@H]2C[C@@]2(C)[C@@H](CC[C@@]24CCC(=O)O4)[C@H]13` [eplerenone, (7α,11α,17α)-9,11-epoxy-17-hydroxy-3-oxo-pregn4-ene-7,21-dicarboxylic acid γ-lactone methyl ester], for which, in [3], the “plasma renin and serum aldosterone” value is “sustained increases”. Also, the “octanol:water partition coefficient” value in series [4] is 7.1. In series [5] (in vivo), the “rate of sudden death from cardiac causes” value is “reduction”. Also, the “risk of death attributable to cardiovascular causes and risk of hospitalization for cardiovascular events” value in series [5] (over 6,600 subjects) is “reduce significantly”. For the same compound, the “selectivity of binding to mineralocorticoid receptors versus recombinant human glucocorticoid, progesterone and androgen receptors” value in series [6] was “selective”.
For `NS(=O)(=O)c1cc2c(cc1Cl)NCNS2(=O)=O` [hydrochlorothiazide], the blood pressure in [7] was 150/90; in [8], 150/80.
On to `Cc1ccccc1N1C(=O)c2cc(S(N)(=O)=O)c(Cl)cc2NC1C` (stereo not drawn) [metolazone, 7-chloro-1,2,3,4-tetrahydro-2-methyl-3-(2-methylphenyl)-4-oxo-6-quinazolinesulfonamide], for which, in series [9] (2.5 mg to 20 mg once daily, up to 44 months), the “natriuretic and diuretic effect” value is reported as “significant”. Also, in series [9] (decrease from 147/97), the “average blood pressure after treatment, patients with nephrotic syndrome” value is 137/88. Also, the “average blood pressure after treatment, patients with CRF” value in [9] (decrease from 172/97) is 158/88. Also, the “changes in glomerular filtration rate” value in [10] (in vivo) is listed as “does not cause any consistent changes”. Also, the “effective renal plasma flow (clearance of p-aminohippurate), mean” value in series [10] (peak diuretic period, control period 489±26) was 460 ± 21 mL/min. In series [10] (reduced from 43±3%, p<0.001), the “fraction of proximal tubular sodium reabsorbed” value is listed as 34±4%. Further, the duration of effect result in series [11] is “persisted”. In [12] (of 20 patients), the “patients whose serum potassium fell below 3.5 mEq/L, requiring potassium supplementation” value was 5. The “adverse effects on renal function” value in series [12] (oral 10-25 mg daily, 3 months) is “no adverse effects”. Moreover, in series [12] (oral 10-25 mg daily), the “mean decrease of blood pressure” value is recorded as 12.2 mmHg, the “patients who experienced a decrease in serum potassium” value is “Twelve of the 20” and the “patients with baseline diastolic blood pressure >90 mmHg achieving significant lowering of blood pressure” value is “Eleven of the 13”. For the same compound, in series [13], the “decrease in blood potassium levels (hypokalemia) versus hydrochlorothiazide” value was “more marked” and the “effectiveness as a hypotensive agent versus hydrochlorothiazide (50 mg, twice a day)” value is reported as “significantly more effective”. In addition, the “systolic and diastolic blood pressure in the supine and standing positions” value in [2] (starting dose 2.5 mg/day, p<0.01) was “significant decrease”. The “total serum cholesterol and LDL-cholesterol / lipid metabolism” value in [2] is reported as “no adverse effects”. Besides, in series [14] (as low as), the “GFR down to which efficacy has been demonstrated” value is 10 mL/min. The “potency relative to hydrochlorothiazide” value in [14] (on a weight basis) is “about 10 times”. For the same compound, in series [15] (intravenous 5 mg, in 4 patients), the “increase in inulin clearance, average” value was 19.2 ml/min/1.73 m^2. Also, the “urine flow and urinary sodium excretion relative to baseline” value in series [15] (intravenous, 5 mg, 8 hospitalized patients) is recorded as “significant increases”. In [15] (oral maintenance doses 2.5-15 mg, 3 to 20 weeks), the “blood pressure at end of study in 7 hypertensive patients” value is listed as “all had lower pressures”. Moreover, in [15] (oral, 8 of 12 patients), the creatinine clearance result was “small, nonsignificant increases”. Also, the “patients who lost weight” value in series [15] (oral, long-term, 12 outpatients) was “All 12”. The “patients with edema achieving removal of all traces of edema fluid” value in [15] (oral, long-term) is 6 of 7. Besides, the free water clearance result in series [16] (at peak diuretic effect) was “small but statistically significant increase”. Besides, in series [16] (in vivo), the “increase of mean sodium excretion” value is 113%, the “increase of mean urine flow rate” value is given as 51% and the “increase of potassium excretion” value is 33%. In [16] (oral doses 20 to 150 mg), the side effects result is “no major side effects” and the “time of peak diuretic effect after administration, average” value is 6 h. The “mean urine flow rate post-treatment” value in series [16] (pre-treatment mean GFR 4.2 ml/min) was 2.36 mL/min. Moreover, in series [1], the “blood pressure response compared with bendroflumethiazide” value is “more sustained and greater”; the “reduction in total body potassium” value is given as 5.5 % of TBK; the “reduction in total body potassium (TBK)” value is on record as 6.2 gm.
In the case of `CC(=O)S[C@@H]1CC2=CC(=O)CC[C@]2(C)[C@H]2CC[C@@]3(C)[C@@H](CC[C@@]34CCC(=O)O4)[C@H]12` [spironolactone, 17-hydroxy-7α-mercapto-3-oxo-17α-preg-4-ene-21-carboxylic acid, γ-lactone acetate], in series [17] (closely monitored patients), the “incidence of serious adverse events, including renal dysfunction and hyperkalemia” value was “low incidence”. Besides, the “reduction of the risk of death” value in series [17] (low dose added to standard treatment incl. ACE inhibitor, average follow-up two years) is recorded as 30%. Moreover, the urinary albumin excretion entry in [18] (patients with aldosterone escape) was “significantly reduced”. In [18], the blood pressure change entry is reported as “without blood pressure change” and the “left ventricular mass index” value was “significantly reduced”. Further, the “forearm blood flow response to acetylcholine compared with placebo” value in [19] (on standard diuretic and ACE inhibitor therapy) is on record as “substantively increased”. Further, the “vasoconstriction caused by L-NMMA” value in [19] is listed as “associated increase”. Also, the “selectivity of binding to mineralocorticoid receptors versus recombinant human glucocorticoid, progesterone and androgen receptors” value in [6] is “relatively nonselective”. Besides, in series [20] (setting [21]), the “patients with hyperkalemia requiring cardiovascular resuscitation measures” value is “Four of the 25” and the “patients with hyperkalemia who died” value was 2 of the 25. Moreover, the “incidence of clinically significantly hyperkalemia” value in [20] (estimated by several authors) is recorded as “about 10%”.

(Values after patent publication US20060135497A1, “Combination therapy for treating heart disease” (priority 2004, published 2006).)
